Where two headings read alike, the source gives them in different places.
Tests used:
human ACC2 = human ACC2 (Homo sapiens (Human), UniProt O00763); format: biochemical; details: for IC50: human ACC2, read-out: IC50 (hACC2)
[1] = system: C2C12 mouse muscle cell line; experiment: Palmitate oxidation in a mouse muscle cell line (C2C12); format: cell-based; details: 10 μM
Procedure: In another pharmacological test both compounds were tested for palmitate oxidation in a mouse muscle cell line (C2C12) which is also mediated by ACC inhibition.

human ACC1 = human ACC1 (Homo sapiens (Human), UniProt Q13085)
rACC1 = rACC1 (Rattus norvegicus (Rat), UniProt P11497); experiment: Enzymatic assay of ACC inhibitors, rat ACC1; format: biochemical
Procedure: The enzymatic activity of ACC and its inhibition by test substances were determined by a luminometric assay. The reaction mixture contained 50 mM tris acetate (Merck, #1.08382.1000), pH 7.5, 250 μM acetyl coenzyme A (Sigma, #A2181),16 mM NaHCO3 (Merck, #1.06329.0500), 0.9 mg/ml bovine serum albumin (Sigma, #A8806), 25 μM ATP (Sigma, #A7699), 1.1 μM β-mercaptoethanol (Roth, #4227,1), 4.3 mM magnesium acetate ((Merck, #1.05819.0250), 10 mM sodium citrate (Merck, #1.06448.0500) and 200-400 ng of the ACC preparations. The mixture also contained a test compound. The test compounds were each dissolved in 10 mM DMSO and were assayed at final concentrations of 0 μM, 0.01 μM, 0.03 μM, 0.1 μM, 0.3 μM, 1 μM, 3 μM, 10 μM, 30 μM and 100 μM. The final concentration of the DMSO in the assay was 0.1% (v/v). The reaction was started by adding ACC and was carried out at 37° C. for 90 min. The reaction was then stopped by adding 150 μl of 0.5 M tris acetate. […] After incubation for 10 min, the luminescence was measured in a luminometer (Tecan Genios Pro).
The crude luminescence data were transferred into a Microsoft Excel file. The luminescence measured in the absence of ACC in the reaction mixture was defined as 100%. […] Dose-effect plots were calculated with the XL.Fit program as specified by the producer (IDBS). […]

rACC2 = rACC2 (Rattus norvegicus, UniProt O70151); experiment: Enzymatic assay of ACC inhibitors, rat ACC2; format: biochemical
Chain of rACC2 (O70151 1-2456): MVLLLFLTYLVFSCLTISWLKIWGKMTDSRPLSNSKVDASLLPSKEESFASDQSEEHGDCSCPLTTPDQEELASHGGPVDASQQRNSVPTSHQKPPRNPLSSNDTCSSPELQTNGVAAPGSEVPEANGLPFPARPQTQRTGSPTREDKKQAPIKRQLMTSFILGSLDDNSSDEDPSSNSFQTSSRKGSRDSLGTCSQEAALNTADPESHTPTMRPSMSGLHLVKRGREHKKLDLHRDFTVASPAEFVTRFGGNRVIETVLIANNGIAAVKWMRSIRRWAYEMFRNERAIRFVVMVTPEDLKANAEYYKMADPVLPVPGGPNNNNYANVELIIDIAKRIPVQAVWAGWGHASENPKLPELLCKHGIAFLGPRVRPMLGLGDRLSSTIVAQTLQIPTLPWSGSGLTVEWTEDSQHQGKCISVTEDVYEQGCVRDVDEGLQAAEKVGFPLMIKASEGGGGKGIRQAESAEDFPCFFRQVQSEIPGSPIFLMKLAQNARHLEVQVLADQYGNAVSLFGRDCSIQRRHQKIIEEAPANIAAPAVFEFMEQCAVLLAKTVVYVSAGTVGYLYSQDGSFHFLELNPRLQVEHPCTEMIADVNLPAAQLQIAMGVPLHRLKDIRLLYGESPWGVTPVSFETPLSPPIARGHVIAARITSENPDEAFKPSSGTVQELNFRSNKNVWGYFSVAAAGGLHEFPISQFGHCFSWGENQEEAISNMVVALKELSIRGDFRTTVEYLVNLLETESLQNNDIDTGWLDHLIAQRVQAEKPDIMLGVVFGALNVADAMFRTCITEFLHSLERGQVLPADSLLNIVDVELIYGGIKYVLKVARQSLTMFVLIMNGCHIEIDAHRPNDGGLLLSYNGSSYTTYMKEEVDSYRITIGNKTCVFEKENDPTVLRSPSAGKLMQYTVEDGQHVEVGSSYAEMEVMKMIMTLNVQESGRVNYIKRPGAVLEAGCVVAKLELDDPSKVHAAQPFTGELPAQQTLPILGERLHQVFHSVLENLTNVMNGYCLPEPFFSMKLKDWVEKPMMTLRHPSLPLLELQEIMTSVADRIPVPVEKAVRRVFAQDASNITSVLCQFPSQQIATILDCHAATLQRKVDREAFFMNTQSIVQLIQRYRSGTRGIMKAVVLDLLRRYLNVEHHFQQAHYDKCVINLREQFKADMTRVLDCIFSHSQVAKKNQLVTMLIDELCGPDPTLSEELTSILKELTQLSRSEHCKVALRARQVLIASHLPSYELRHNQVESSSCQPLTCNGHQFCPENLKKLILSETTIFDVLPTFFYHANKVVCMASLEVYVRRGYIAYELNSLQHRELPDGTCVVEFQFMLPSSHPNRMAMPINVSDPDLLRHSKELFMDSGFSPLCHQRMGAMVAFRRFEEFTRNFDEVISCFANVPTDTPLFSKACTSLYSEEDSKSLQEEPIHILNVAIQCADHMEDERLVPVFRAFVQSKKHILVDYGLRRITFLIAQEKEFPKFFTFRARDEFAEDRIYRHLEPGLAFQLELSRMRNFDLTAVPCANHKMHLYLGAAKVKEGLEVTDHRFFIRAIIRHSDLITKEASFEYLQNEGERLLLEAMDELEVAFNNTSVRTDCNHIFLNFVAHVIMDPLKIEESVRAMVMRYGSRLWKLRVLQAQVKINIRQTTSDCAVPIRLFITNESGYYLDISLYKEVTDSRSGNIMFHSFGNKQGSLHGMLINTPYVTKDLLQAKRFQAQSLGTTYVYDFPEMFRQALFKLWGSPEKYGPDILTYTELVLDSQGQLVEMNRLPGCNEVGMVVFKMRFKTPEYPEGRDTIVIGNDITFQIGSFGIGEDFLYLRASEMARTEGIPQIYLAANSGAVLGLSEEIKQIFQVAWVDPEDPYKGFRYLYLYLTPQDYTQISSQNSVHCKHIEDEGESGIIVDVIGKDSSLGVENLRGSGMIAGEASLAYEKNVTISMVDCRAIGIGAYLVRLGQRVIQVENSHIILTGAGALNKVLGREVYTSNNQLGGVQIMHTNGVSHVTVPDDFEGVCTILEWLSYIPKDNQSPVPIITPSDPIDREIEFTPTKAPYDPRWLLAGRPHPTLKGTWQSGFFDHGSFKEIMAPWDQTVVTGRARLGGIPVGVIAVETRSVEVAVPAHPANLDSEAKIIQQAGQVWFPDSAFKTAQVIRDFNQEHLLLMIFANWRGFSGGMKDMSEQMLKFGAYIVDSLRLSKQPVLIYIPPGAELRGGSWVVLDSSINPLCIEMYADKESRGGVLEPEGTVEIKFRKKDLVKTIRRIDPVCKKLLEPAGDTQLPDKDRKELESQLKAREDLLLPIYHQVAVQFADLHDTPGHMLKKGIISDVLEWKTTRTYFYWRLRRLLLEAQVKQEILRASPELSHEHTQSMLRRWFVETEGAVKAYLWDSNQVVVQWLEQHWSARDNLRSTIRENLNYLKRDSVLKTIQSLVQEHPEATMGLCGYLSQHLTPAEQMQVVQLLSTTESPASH
Procedure: The enzymatic activity of ACC and its inhibition by test substances were determined by a luminometric assay. The reaction mixture contained 50 mM tris acetate (Merck, #1.08382.1000), pH 7.5, 250 μM acetyl coenzyme A (Sigma, #A2181),16 mM NaHCO3 (Merck, #1.06329.0500), 0.9 mg/ml bovine serum albumin (Sigma, #A8806), 25 μM ATP (Sigma, #A7699), 1.1 μM β-mercaptoethanol (Roth, #4227,1), 4.3 mM magnesium acetate ((Merck, #1.05819.0250), 10 mM sodium citrate (Merck, #1.06448.0500) and 200-400 ng of the ACC preparations. The mixture also contained a test compound. The test compounds were each dissolved in 10 mM DMSO and were assayed at final concentrations of 0 μM, 0.01 μM, 0.03 μM, 0.1 μM, 0.3 μM, 1 μM, 3 μM, 10 μM, 30 μM and 100 μM. The final concentration of the DMSO in the assay was 0.1% (v/v). The reaction was started by adding ACC and was carried out at 37° C. for 90 min. The reaction was then stopped by adding 150 μl of 0.5 M tris acetate. 10 μl of the mixture were removed and mixed with 90 μl of ATP monitoring reagent (Cambrex, #LT27-002). After incubation for 10 min, the luminescence was measured in a luminometer (Tecan Genios Pro).
The crude luminescence data were transferred into a Microsoft Excel file. The luminescence measured in the absence of ACC in the reaction mixture was defined as 100%. The value in the presence of ACC with 0 μM test compound was set at 0%. Dose-effect plots were calculated with the XL.Fit program as specified by the producer (IDBS). The IC50 of a test substance was the concentration of the test compound at which a luminescence of 50% was measured.

[2] = relative to comparative example 59
[3] = relative to comparative example 59, respective rat ACC isoforms

Chain of human ACC2 (O00763 151-2458): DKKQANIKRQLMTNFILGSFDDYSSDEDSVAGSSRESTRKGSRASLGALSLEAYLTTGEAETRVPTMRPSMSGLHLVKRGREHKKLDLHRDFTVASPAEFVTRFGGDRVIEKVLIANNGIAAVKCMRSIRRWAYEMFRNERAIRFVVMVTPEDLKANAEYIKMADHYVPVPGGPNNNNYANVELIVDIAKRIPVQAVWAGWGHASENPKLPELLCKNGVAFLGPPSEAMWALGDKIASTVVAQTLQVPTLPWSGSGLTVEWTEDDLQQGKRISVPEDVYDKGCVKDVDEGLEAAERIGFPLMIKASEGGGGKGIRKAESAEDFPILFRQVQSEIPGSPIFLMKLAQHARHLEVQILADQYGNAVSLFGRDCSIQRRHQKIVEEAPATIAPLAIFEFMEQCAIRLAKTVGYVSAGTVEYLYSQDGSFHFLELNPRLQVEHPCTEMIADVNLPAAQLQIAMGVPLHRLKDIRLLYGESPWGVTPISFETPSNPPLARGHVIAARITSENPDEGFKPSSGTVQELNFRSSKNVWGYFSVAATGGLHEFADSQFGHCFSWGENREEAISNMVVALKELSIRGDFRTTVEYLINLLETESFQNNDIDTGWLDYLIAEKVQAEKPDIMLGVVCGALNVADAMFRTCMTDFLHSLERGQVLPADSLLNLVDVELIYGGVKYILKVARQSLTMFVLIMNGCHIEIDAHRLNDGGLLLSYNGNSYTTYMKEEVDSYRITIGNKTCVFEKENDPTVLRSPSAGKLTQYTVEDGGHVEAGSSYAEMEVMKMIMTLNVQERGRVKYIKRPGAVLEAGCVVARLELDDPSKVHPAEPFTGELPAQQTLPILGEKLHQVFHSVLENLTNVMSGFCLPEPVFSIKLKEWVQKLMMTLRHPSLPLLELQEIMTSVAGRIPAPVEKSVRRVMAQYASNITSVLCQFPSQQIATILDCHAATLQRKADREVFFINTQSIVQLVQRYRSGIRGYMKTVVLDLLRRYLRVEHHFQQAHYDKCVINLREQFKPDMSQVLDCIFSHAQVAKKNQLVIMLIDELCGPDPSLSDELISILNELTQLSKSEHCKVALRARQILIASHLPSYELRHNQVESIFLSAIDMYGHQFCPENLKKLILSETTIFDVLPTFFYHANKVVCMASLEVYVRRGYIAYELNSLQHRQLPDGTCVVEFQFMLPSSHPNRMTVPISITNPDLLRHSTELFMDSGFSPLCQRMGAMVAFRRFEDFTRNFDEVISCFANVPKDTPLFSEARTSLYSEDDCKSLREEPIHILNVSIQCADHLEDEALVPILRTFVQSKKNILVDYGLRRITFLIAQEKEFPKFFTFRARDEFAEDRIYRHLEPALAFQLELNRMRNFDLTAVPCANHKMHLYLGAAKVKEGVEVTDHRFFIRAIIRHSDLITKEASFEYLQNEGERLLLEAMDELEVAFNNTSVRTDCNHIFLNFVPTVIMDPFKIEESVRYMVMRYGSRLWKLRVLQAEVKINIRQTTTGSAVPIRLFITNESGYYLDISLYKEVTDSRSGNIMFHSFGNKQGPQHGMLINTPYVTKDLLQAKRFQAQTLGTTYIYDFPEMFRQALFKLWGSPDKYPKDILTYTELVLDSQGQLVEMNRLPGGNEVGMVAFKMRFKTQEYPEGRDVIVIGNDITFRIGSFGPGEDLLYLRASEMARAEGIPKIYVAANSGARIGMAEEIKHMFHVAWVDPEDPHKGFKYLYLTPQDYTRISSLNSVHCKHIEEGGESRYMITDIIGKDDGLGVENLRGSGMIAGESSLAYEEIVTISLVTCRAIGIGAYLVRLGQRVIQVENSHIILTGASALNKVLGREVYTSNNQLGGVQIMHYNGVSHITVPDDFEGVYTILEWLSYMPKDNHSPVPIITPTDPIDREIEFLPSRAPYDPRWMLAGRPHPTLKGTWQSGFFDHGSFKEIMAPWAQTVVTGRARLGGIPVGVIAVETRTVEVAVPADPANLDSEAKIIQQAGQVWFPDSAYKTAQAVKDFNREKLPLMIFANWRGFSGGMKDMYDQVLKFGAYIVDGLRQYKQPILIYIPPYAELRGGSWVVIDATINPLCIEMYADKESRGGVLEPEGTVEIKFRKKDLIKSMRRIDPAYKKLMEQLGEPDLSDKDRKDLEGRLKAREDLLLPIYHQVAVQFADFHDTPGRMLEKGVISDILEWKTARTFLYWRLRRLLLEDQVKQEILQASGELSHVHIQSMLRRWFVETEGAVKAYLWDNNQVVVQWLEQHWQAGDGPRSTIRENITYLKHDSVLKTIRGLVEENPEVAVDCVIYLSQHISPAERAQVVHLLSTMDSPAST

SMILES | IC50 (human ACC2) [µM] | also measured
CC(=O)N[C@@H](C)CCc1ccc(Oc2ccc(OCc3ccccc3)cn2)cc1 [Example 19, N—{(S)-3-[4-(5-Benzyloxypyridin-2-yloxy)phenyl]-1-methylpropyl}acetamide] | 0.1 | 
CC(=O)NCCC[C@H]1OC[C@H](Oc2ccc(OC(C)C)cn2)CO1 [Example 23, trans-N-{3-[5-(5-isopropoxypyridin-2-yloxy)-[1,3]dioxan-2-yl]-propyl}acetamide] | 2 | 
CC(=O)N[C@@H](C)COc1ccc(Oc2ccc(OC(C)C)cn2)cc1 [Example 29, N—{(S)-2-[4-(5-Isopropoxypyridin-2-yloxy)phenoxy]-1-methylethyl}acetamide] | 1.2 | 
CCCOc1ccc(Oc2ccc(CCC(C)NC(C)=O)cc2)nc1 (centres unmarked) [Example 11, N-{1-Methyl-3-[4-(5-propoxypyridin-2-yloxy)phenyl]propyl}acetamide] | 0.14 | 
CC(=O)NCCC[C@H]1OC[C@H](Oc2ccc(OCc3ccccc3)cn2)CO1 [Example 17, trans-N-{3-[5-(5-benzyloxypyridin-2-yloxy)-[1,3]dioxan-2-yl]propyl}acetamide] | 0.05 | 
CC(=O)NCCC[C@H]1OC[C@H](Oc2ncc(OC(C)C)cc2Cl)CO1 [Example 25, trans-N-{3-[5-(3-chloro-5-isopropoxypyridin-2-yloxy)-[1,3]dioxan-2-yl]propyl}acetamide] | 0.38 | 
CC(=O)N[C@@H](C)CCc1ccc(Oc2ccc(OC(C)C)nc2)cc1 [Example 35, N—{(S)-3-[4-(6-Isopropoxypyridin-3-yloxy)phenyl]-1-methylpropyl}acetamide] | 0.03 | stimulation of cellular fat (palmitate) oxidation [1]: 1.7 fold; times higher potency than example 59, human ACC2 (human ACC2; [2]): approx. 5 times; IC50 (human ACC1; read-out: IC50 hACC (human ACC1), human ACC1, table row printed as hACC): 0.19 µM; times higher potency than example 59, human ACC1 (human ACC1; [2]): ~40 times; IC50 (rACC1; rat ACC1): 0.17 µM; times higher potency than example 59, rat ACC1 (rACC1; [3]): > 3 times; IC50 (rACC2; rat ACC2, read-out: IC50 rACC2): 0.4 µM; times higher potency than example 59, rat ACC2 (rACC2; [3]): > 3 times
CC(=O)NC(C)CCc1ccc(Oc2ncc(OC(C)C)cc2Cl)cc1 (centres unmarked) [Example 32, N-{3-[4-(3-Chloro-5-isopropoxypyridin-2-yloxy)phenyl]-1-methylpropyl}acetamide] | 1.3 | 
CC(=O)NCCC[C@H]1OC[C@H](Oc2ccc(OCc3ccccc3)cc2)CO1 [Example 4, trans-N-{3-[5-(4-benzyloxyphenoxy)-[1,3]dioxan-2-yl]propyl}acetamide] | 0.4 | 
CC(=O)NC(C)COc1ccc(Oc2ccc(OC(C)C)cn2)cc1 (centres unmarked) [Example 27, N-{2-[4-(5-Isopropoxypyridin-2-yloxy)phenoxy]-1-methylethyl}acetamide] | 1.3 | 
CC(=O)NC(C)CCc1ccc(Oc2ccc(OC3CCOC3)cn2)cc1 (centres unmarked) [Example 20, N-(1-Methyl-3-{4-[5-(tetrahydrofuran-3-yloxy)pyridin-2-yloxy]phenyl}propyl)acetamide] | 3.6 | 
CC(=O)NC(C)CCc1ccc(Oc2ccc(OCC3CCC3)cn2)cc1 (centres unmarked) [Example 12, N-{3-[4-(5-Cyclobutylmethoxypyridin-2-yloxy)phenyl]-1-methylpropyl}acetamide] | 0.05 | 
CC(=O)NC(C)CCc1ccc(Oc2ccc(OCc3ccccc3)cn2)cc1 (centres unmarked) [Example 9, N-{3-[4-(5-Benzyloxypyridin-2-yloxy)phenyl]-1-methylpropyl}acetamide] | 0.14 | 
CC(=O)N[C@@H](C)COc1ccc(Oc2ccc(OC(C)C)cc2)cc1 [Example 59, N—{(S)-2-[4-(4-Isopropoxyphenoxy)phenoxy]-1-methylethyl}acetamide, reference compound] |  | stimulation of cellular fat (palmitate) oxidation [1]: no effect; IC50 (rACC2): 1.5 µM
CC(=O)NC(C)CCc1ccc(Oc2ccc(OC3CCCC3)cn2)cc1 (centres unmarked) [Example 2, N-{3-[4-(5-Cyclopentyloxypyridin-2-yloxy)phenyl]-1-methylpropyl}acetamide] | 0.14 | 
CC(=O)NC(C)CCc1ccc(Oc2ccc(OC(C)C)nc2)cc1 (centres unmarked) [Example 33, N-{3-[4-(6-Isopropoxypyridin-3-yloxy)phenyl]-1-methylpropyl}acetamide] | 0.06 | 
CC(=O)NCCC[C@H]1OC[C@H](Oc2ccc(OC3CCCC3)cc2)CO1 [Example 6, trans-N-{3-[5-(4-Cyclopentyloxyphenoxy)-[1,3]dioxan-2-yl]propyl}acetamide] | 0.2 | 

Now from value to compound, other results behind:

IC50 (human ACC2) [µM] | SMILES | also measured
0.09 | CC(CCc1ccc(Oc2ccc(OC(C)C)nc2)cc1)NC(=O)C1CC1 (centres unmarked) [Example 44, N-{3-[4-(6-Isopropoxypyridin-3-yloxy)phenyl]-1-methylpropyl}cyclopropanecarboxamide] | 
0.74 | CC(=O)NC(C)CCc1ccc(Oc2cnc(OC(C)C)nc2)cc1 (centres unmarked) [Example 40, N-{3-[4-(2-Isopropoxypyrimidin-5-yloxy)phenyl]-1-methylpropyl}acetamide] | 
1.2 | CC(=O)NC(C)CCc1ccc(Oc2cnc(OC(C)C)cn2)cc1 (centres unmarked) [Example 49, N-{3-[4-(5-Isopropoxypyrazin-2-yloxy)phenyl]-1-methylpropyl}acetamide] | 
0.15 | CC(CCc1ccc(Oc2ccc(OC(C)C)nc2)cc1)NC(N)=O (centres unmarked) [Example 47, {3-[4-(6-Isopropoxypyridin-3-yloxy)phenyl]-1-methylpropyl}urea] | 
0.67 | CC(CCc1ccc(Oc2ccc(OC(C)C)nc2)cc1)NC=O (centres unmarked) [Example 45, N-{3-[4-(6-Isopropoxypyridin-3-yloxy)phenyl]-1-methylpropyl}formamide] | 
0.17 | CC(=O)NC(C)CCc1ccc(Oc2ccc(OCC3CC3)nc2)cc1 (centres unmarked) [Example 50, N-{3-[4-(6-Cyclopropylmethoxypyridin-3-yloxy)phenyl]-1-methylpropyl}acetamide] | 
0.21 | COC(=O)NC(C)CCc1ccc(Oc2ccc(OC(C)C)nc2)cc1 (centres unmarked) [Example 46, Methyl {3-[4-(6-isopropoxypyridin-3-yloxy)phenyl]-1-methylpropyl}carbamate] | 
0.07 | CC(=O)NC(C)CCc1ccc(Oc2ccc(OCc3ccccc3)nc2)cc1 (centres unmarked) [Example 36, N-{3-[4-(6-Benzyloxypyridin-3-yloxy)phenyl]-1-methylpropyl}acetamide] | 
0.08 | CC(=O)NC(C)CCC1CCC(Oc2ccc(OC(C)C)nc2)CC1 (centres unmarked) [Example 52, N-{3-[4-(6-Isopropoxypyridin-3-yloxy)cyclohexyl]-1-methylpropyl}acetamide] | 
5.9 | CC(=O)NC(C)CCc1cnc(Oc2ccc(OCc3ccccc3)nc2)nc1 (centres unmarked) [Example 37, N-{3-[2-(6-Benzyloxypyridin-3-yloxy)pyrimidin-5-yl]-1-methylpropyl}acetamide] | 
2.5 | CC(=O)N[C@@H](C)COc1ccc(Oc2ccc(OC(C)C)cc2)nc1 [Example 39, N—{(S)-2-[6-(4-Isopropoxyphenoxy)pyridin-3-yloxy]-1-methylethyl}acetamide] | 
0.9 | CC(CCc1ccc(Oc2ccc(OC(C)C)nc2)cc1)NC(=O)CO (centres unmarked) [Example 48, 2-Hydroxy-N-{3-[4-(6-isopropoxypyridin-3-yloxy)phenyl]-1-methylpropyl}acetamide] | 

From patent US8470841B2, “Heterocyclic compounds, processes for their preparation, medicaments comprising these compounds, and the use thereof” (Sanofi, priority 2008, dated 2013)
